Assay results as given in US7968526B2, “Antisense oligonucleotides directed to ribonucleotide reductase R2 and uses thereof in the treatment of cancer” (Lorus Therapeutics Inc., priority 2003, dated 2011).
“Also recorded” adds a separate entry of the source.

Legend:
[1] = test system: BxPC-3 human pancreatic carcinoma cells; assay: BxPC-3 gemcitabine resistant pancreatic carcinoma xenograft in CD-1 nude mice; type: in vivo, human cells in mice; details: Gemcitabine 100 mg/kg i.v. every three days
Experimental: BxPC-3 is a gemcitabine resistant call line. […] Gemcitabine was administered intravenously every three days at a dose of 100 mg/kg. Antitumour activities were estimated by the inhibition of tumour volume, which was measured with caliper. Each point represents mean tumour volume calculated from 10 animals per experimental group. […] Hela S3 is a hydroxyurea resistant cell line. […] Hydroxyurea was administered intraperitoneally every day at a dose of 250 mg/kg for 10 days. Cisplatin was administered intravenously once a week for three weeks at a dose of 4 mg/kg. Antitumour activities were estimated by the inhibition of tumour volume, which was measured with caliper. Each point represents mean tumour volume calculated from 10 animals per experimental group. […] Cisplatin was administered intravenously once a week for three weeks at a dose of 4 mg/kg. Taxol was administered intravenously once a week for three weeks at a dose of 10 mg/kg. Antitumour activities were estimated by the inhibition of tumour volume, which was measured with caliper. Each point represents mean tumour volume calculated from 10 animals per experimental group. […] Taxol was administered i.p. once a week at a dose of 10 mg/kg. Antitumour activities were estimated by the inhibition of tumour volume (FIG. 12A), which was measured with calipers. Each point represents mean tumour volume calculated from 10 animals per experimental group. Animals were sacrificed and tumour weights taken at the end of the study (FIG. 12C). […] Cisplatin was administered intravenously once a week for four weeks at a dose of 4 mg/kg. Taxol was administered intravenously once a week for four weeks at a dose of 20 mg/kg. Antitumour activities were estimated by the inhibition of tumour volume, which was measured with caliper. Each point represents mean tumour volume calculated from 9-10 animals per experimental group. […] Cisplatin was administered intravenously once a week for four weeks at a dose of 4 mg/kg. Antitumour activities were estimated by the inhibition of tumour volume, which was measured with caliper. Each point represents mean tumour volume calculated from 10 animals per experimental group. At the end of the study the animals were sacrificed and tumours weighed. […] Taxol was administered i.p. once a week at a dose of 10 mg/kg. Anti-tumour activity was estimated by the inhibition of tumour volume, which was measured with caliper. Each point represents mean tumour volume calculated from 10 animals per experimental group. […] Antitumour activities were estimated by the inhibition of tumour volume, which was measured with caliper. Each point represents mean tumour volume calculated from 10 animals per experimental group. Tumour weights were measured after animals were sacrificed at the end of the treatment. […]

[2] = Acute intravenous toxicity study in the monkey; type: in vivo; details: rhesus monkeys
Experimental: Intravenous infusion of SEQ ID NO:1 for 24 hours at doses up to 80 mg/kg/day (984 mg/m^2/day) was well-tolerated by rhesus monkeys. […] These effects indicate an apparent inhibition of the intrinsic coagulation pathway, and modest activation of the alternative complement pathway, respectively. These treatment-related changes were typical class effects of phosphorothioate oligonucleotide administration.

[3] = test system: C8161 human melanoma cells; assay: Experimental metastasis of C8161 cells treated ex vivo, lung nodules in CD-1 nude mice (4.2); set-up: species or system human cells in mice
Experimental: • 4.1 Experimental metastasis of mouse fibrosarcoma (R3) cells treated with different antisense oligonucleotides in a syngenetic model was estimated as follows. Aliquots of R3 cell suspension were seeded into 100 mm tissue culture dishes at a density of 2×10^6 and incubated overnight at 37° C. in α-MEM medium supplemented with 10% FBS. Cells were washed once in 10 ml of PBS and treated with 0.2 μM of SEQ ID NO: 1 in the presence of cationic lipid (Lipofectin reagent, final concentration, 10 μg/ml, Gibco BRL) for 4 hr. Cells were treated with either saline alone (C) or lipofectin alone (RE) as controls. Oligonucleotide was removed by washing the cells once with PBS and the cells were trypsinized. Cells were then collected by centrifugation, and approximately 1×10^5 cells suspended in 0.2 ml of PBS were injected into the tail veins of 10 week-old C3H female mice. Estimates of the number of lung tumours were made 20 days later, after excised lungs from individual mice were stained with picric acid dye solution (75% picric acid, 20% formaldehyde, 5% glacial acetic acid). Bars represent mean number of tumour nodules in lungs obtained from 4 to 5 animals per experimental group. […] Aliquots of C8161 cell suspension were seeded into 100 mm tissue culture dishes at a density of 2×10^6 and incubated overnight at 37° C. in α-MEM medium supplemented with 10% FBS. […]

[4] = 21-day intravenous toxicity study in the rat with a 21-day recovery; type: in vivo, Sprague-Dawley rats
Experimental: SEQ ID NO:1 was administered to Sprague-Dawley rats via intravenous bolus injection every second day up to 21 days, with a 21-day recovery period. The study design included 4 treatment groups; vehicle controls, 2 mg/kg, 10 mg/kg, and 50 mg/kg. The main study group consisted of 10 animals/sex, and an additional 5 animals/sex were included in the control and high-dose groups for a recovery phase. Satellite animals (6/sex/group) were also included for toxicokinetic analysis.

[5] = 50 mg/kg i.v. bolus every second day up to 21 days

5′-GGCTAAATCGCTCCACCAAG-3′ (all phosphorothioate, sugars by position and methylation of C not given here) [SEQ ID NO: 1, fully phosphorothioated antisense oligonucleotide that hybridizes to the coding region of R2 mRNA]
Tumour weight as % of saline control ([1]; BxPC-3 (pancreatic), Gemcitabine resistant, CD-1, SEQ ID NO:1 10 mg/kg i.v. every other day 17 times): 5.8% | Antitumour effect (tumour volume, FIG. 9) ([1]; BxPC-3 gemcitabine resistant, CD-1 nude mice, SEQ ID NO:1 10 mg/kg i.v. every other day): significant delay of tumour growth compared to saline control | Clinical signs, body weight, blood pressure, heart rate, serum biochemistry, haematology ([2]; 24 hour i.v. infusion, any dose): No treatment-related clinical signs or changes in body weight, blood pressure, heart rate, serum biochemistry or haematology parameters | Deaths ([2]; 24 hour i.v. infusion, doses up to 80 mg/kg/day): no deaths during the study | Complement split product Bb ([2]; end of infusion at 20, 40, and 80 mg/kg/day): slight treatment-related increases in complement split product Bb | APTT ([2]; end of infusion at 40 and 80 mg/kg/day): Mild treatment-related changes in APTT | Tolerability ([2]; intravenous infusion for 24 hours at doses up to 80 mg/kg/day (984 mg/m^2/day)): well-tolerated | Formation of lung colonies / nodules ([3]; C8161 cells treated with 0.2 μM + Lipofectin for 4 hr before i.v. injection into CD-1 nude mice): significantly reduced the formation of lung colonies; also recorded: significantly reduces the extent of lung nodule formation | Decrease in the number of tumour metastases to lungs ([3]; Human Melanoma (ex vivo and in vivo)): Decrease by approximately 95% in the number | Toxicity findings ([4]; 2 mg/kg i.v. bolus every second day up to 21 days): no remarkable effects on any of the above parameters | Toxicity findings ([4]; 10 mg/kg i.v. bolus every second day up to 21 days): no clinical signs, no effects on body weight or food consumption, a lesser degree of anemia and thrombocytopenia, and only minor changes in a few serum chemistry parameters | Mortality [4, 5]: A single mortality | Toxicity findings [4, 5]: various adverse clinical signs, a decrement in body weight gain (associated with diminished food consumption), lymphocytosis, moderate anemia and thrombocytopenia, and various relatively mild changes in serum chemistry parameters | Target organs (histopathology) ([4]; 10 and 50 mg/kg): lymphoid system, kidneys, and liver | no-adverse-effect-level (NOAEL) ([4]; 21-day study): 2 mg/kg/day
